≈ marks a conversion by molar mass, not a printed value.
Conditions: for aqueous solubility: pH 6.8

MDR1-MDCK efflux ratio	intrinsic clearance, human liver microsomes [mL/min/kg]	intrinsic clearance, rat liver microsomes [mL/min/kg]	aqueous solubility [µg/mL]	fraction unbound, human plasma	SMILES
9.73	118	89.2	2.73 (≈ 7.06 µM)		Cc1cc(C)c(S(=O)(=O)Nc2ccc(N(C)C)cc2)c(C)c1-n1cnnn1
4.05	≤ 4.74	≤ 10.7			O=C(O)c1ccc(CCC(=O)N2CCc3c(F)cc(F)cc3C2)cc1
			56.4 (≈ 160 µM)		COc1ccc(S(=O)(=O)N2CCC(N3CCC(C)CC3)CC2)cc1
0.691	≤ 4.74	≤ 10.7			O=C(NN1CCOCC1)c1ccc(Cl)c(Cl)c1
	35.2	698			O=C(Nc1cccc2ncccc12)[C@H]1CCCN(S(=O)(=O)c2ccc(F)cc2)C1
	267	512			O=[N+]([O-])c1ccc(S(=O)(=O)Nc2cccc(-c3nc4ccccc4s3)c2)cc1
0.817			2.1 (≈ 6.58 µM)		N#Cc1c(O)nc(SCc2cccc(F)c2F)nc1C1CC1
	14	57.3			Cc1cc(C)nc(NS(=O)(=O)c2ccc(NC(=O)/C=C/c3ccc([N+](=O)[O-])s3)cc2)n1
	≤ 4.74	≤ 10.7	41.6 (≈ 165 µM)		C/N=C(\NC#N)NCCSCc1nc[nH]c1C
	≤ 4.74	61.5			Cn1ccnc1C1CCN(C(=O)COCc2nc3cc(F)ccc3[nH]2)CC1
73.4	83.6	288			Cc1cn2cc(C(=O)N(C)CCO)cc(N[C@@H]3CCOc4cccc(C)c43)c2n1
0.675	17.8	514			COc1ccc(OCc2n[nH]c(-c3ncoc3C(C)C)n2)cc1
49.3	10	114			CC(=O)Nc1ccccc1CN1CCC(c2nnc3ccccn23)CC1
0.719	≤ 4.74	51.6	43.4 (≈ 175 µM)		O=C(NCc1cc(F)cc(F)c1)c1ccccn1
			0.84 (≈ 2.9 µM)		O=C(c1cc(-c2ccccc2)[nH]n1)N1CCc2ccccc21
8.58	6.58	265			Cc1nn(CCNS(=O)(=O)N2CCOCC2)c(C)c1C
3.28	246	3020	40.5 (≈ 136 µM)		CCc1ccc(-c2nccn2Cc2c(C)nn(CC)c2C)o1
0.698	45.8			0.0601	CC(C)(C)c1ccc(C(O)CN2CCC(O)(c3ccc4c(c3)OCO4)CC2)cc1 (configuration not stated)
1.18	13.2	1110	28.5 (≈ 92.1 µM)		Cc1cccc(NCC2CCN(C(=O)c3ccccc3)CC2)n1
0.64	60.6	3460			Fc1cccc(N2CCCC2)c1CN1CCN(Cc2ccon2)CC1
0.536			0.2 (≈ 0.543 µM)		COc1ccc(OCc2nn3c(-c4ccc(OC)cc4)nnc3s2)cc1
129	14.7	66.5			COC(=O)N[C@H](C)CNc1nccc(-c2cn(C(C)C)nc2-c2cc(Cl)cc(NS(C)(=O)=O)c2F)n1
	54.7	801	27 (≈ 97.5 µM)		CNc1nc(N2CCCCC2)nc(N2CCCCC2)n1

SMILES	MDR1-MDCK efflux ratio	intrinsic clearance, human liver microsomes [mL/min/kg]	intrinsic clearance, rat liver microsomes [mL/min/kg]	aqueous solubility [µg/mL]	fraction unbound, human plasma
CCn1c(SC)nnc1C1CCN(C)CC1	7.45	≤ 4.74	≤ 10.7	41.2 (≈ 171 µM)	
